Results on 5 compounds are retold here after PMC4303146, “Investigation of cyanine dyes for in vivo optical imaging of altered mitochondrial membrane potential in tumors” (Cancer Medicine, 2014).

Data set [1] in a line: Photophysical properties (fluorescence spectroscopy, quantum yield). The class given is physicochemical. The method, then:
IC7-1 derivatives were dissolved in chloroform or 5% FBS to give a concentration of 1 μmol/L for fluorescence spectroscopy analysis. Excitation spectra were measured following the emission at 850 nm, and emission spectra were measured following excitation at 823 nm. Quantum yields were determined using a Fluorolog-3 spectrofluorometer equipped with an integrating sphere.

For data set [2], the system named is HeLa cells. The data set is described as follows: Cellular localization study (fluorescence microscopy with NAO mitochondria marker). Type of data set: cell-based, human. The note with it: 1 μmol/L, 60 min, NAO 100 nmol/L. The method, then: HeLa cells (3 × 10^5 cells) were cultured in a poly-L-lysine coated glass bottom dish for 24 h at 37°C before use. Cells were washed twice with phosphate-buffered saline (PBS) and then incubated with the IC7-1 derivative dissolved in dimethyl sulfoxide (DMSO) (1 μmol/L final concentration) in DMEM supplemented with 5% FBS and 1% penicillin and streptomycin for 60 min. To determine the dye localization, mitochondria were labeled with NAO (100 nmol/L final concentration) for 20 min before completion of the incubation with IC7-1 derivative. Next, the cells were washed twice each with DMEM and PBS. Cells were viewed with a fluorescence microscope under a 100× oil-immersion objective lens. MetaMorph® software (Molecular Devices, LLC, Sunnyvale, CA) was used for imaging analysis.

The target of data set [3] is BSA (Bos taurus, UniProt P02769). The data set is described as follows: Association constants of IC7-1 derivatives to albumin (fluorimetric titration). The class given is binding, bovine. The note with it: dye 1 µM, BSA 0-1.0 µM, 30 min; read-out: Ka, association constant of dye-albumin complex (converted). The method, then:
Binding studies of IC7-1 derivatives to albumin were conducted as reported previously (Beckford G et al. The solvatochromic effects of side chain substitution on the binding interaction of novel tricarbocyanine dyes with human serum albumin. Talanta 2012;92: 45-52). Briefly, IC7-1 derivatives (1 µM final concentration) were incubated with BSA (0, 0.4, 0.6, 0.8, and 1.0 µM) for 30 min to equilibrate. The fluorescence intensity was measured following the excitation at 823 nm and the emission from 840 to 900 nm. The interaction between dye D and albumin A can be expressed by Eq. 1:
The association constant for the dye-albumin complex formation can be expressed by Eq. 2:
Then, the association constant Ka of the dye-albumin complex was calculated from the data for the fluorimetric titration of the dye with albumin using Eq. 3:
1/ΔF = 1/k[D] + (1/(k[D]Ka))·(1/[A]) (3)
where k is a constant depending on the instrumentation and quantum efficiency of the process.
Therefore, a plot of the reciprocal of ΔF versus the reciprocal of albumin concentration gives a straight line. The association constant was calculated by dividing the intercept by the slope of the line.

Data set [4] relates to HeLa cell xenograft. The data set is described as follows: In vivo imaging study in HeLa cell xenograft mice. Conditions: for Tumor fluorescence intensity group from ROI analysis / Liver accumulation and excretion: 10 nmol i.v.; for Liver accumulation and excretion: ventral imaging 3-72 h. The method, then:
Animal experiments were conducted in accordance with institutional guidelines and were approved by the Kyoto University Animal Care Committee. […] HeLa cells (2 × 10^6 cells in 100 μL of PBS) were subcutaneously inoculated into the right hind legs of mice. Fourteen days after implantation, mice were used for the imaging study.
Clairvivo® OPT measurement and display software ver. 2.6.0.0. (SHIMADZU Co.) was used for imaging analysis.
Exposure time was 5s for the scan at 3 h, and 3s for the other scans. Clairvivo® OPT measurement and display software ver. 2.6.0.0. (SHIMADZU Co., Kyoto, Japan) was used for imaging analysis.

Data set [5] deals with HeLa cells. The data set is described as follows: Cellular uptake study with uncoupler CCCP. The class given is cell-based, human. The note with it: dye 1 μmol/L, 60 min, CCCP 0-25 μmol/L. The method, then: A cellular uptake study was conducted as reported previously. Briefly, the buffer solution (pH 7.4) for the cellular uptake study was composed of NaCl ([…]), KCl (5.4 mmol/L), CaCl2 (1.2 mmol/L), MgSO4 (0.8 mmol/L), NaH2PO4 (0.8 mmol/L), dextrose (5.6 mmol/L), and 4-(2-hydroxyethyl)-1-piperazineethanesulfonic acid) (5 mmol/L). HeLa cells (1 × 10^6 cells/mL buffer solution) were incubated with carbonyl […] m-chlorophenylhydrazone (CCCP; 0, 0.1, 0.25, 0.5, 0.75, 1, 2.5, 5, 10, and 25 μmol/L) for 5 min at 37°C in 1.5 mL microtubes, followed by the addition of the IC7-1 derivative (1 μmol/L final concentration). After a 60-min incubation with the IC7-1 derivative, the cells were washed twice and resuspended with buffer solution. The fluorescence intensity was measured following the excitation at 823 nm and the emission from 840 to 900 nm, and the normalized intensity (%) was calculated as a percentage of fluorescence intensity obtained with CCCP untreated (0 μmol/L) cells.
The buffer solution (pH 7.4) for the cellular uptake study was composed of NaCl (145 mM), KCl (5.4 mM), CaCl2 (1.2 mM), MgSO4 (0.8 mM), NaH2PO4 (0.8 mM), dextrose (5.6 mM), and HEPES (5 mM). The HeLa cells (1 x 10^6 cells / ml buffer solution) were incubated with an uncoupler (CCCP; 0, 0.1, 0.25, 0.5, 0.75, 1, 2.5, 5, 10, and 25 µM) for 5 min at 37 °C in 1.5 mL microtubes, followed by the addition of IR-780 or IC7-1-Bu (1 µM final concentration) After a 60 min incubation with the dyes, the cells were washed twice and resuspended with buffer solution. Fluorescence intensity was measured following the excitation at 763 nm and the emission from 780 to 880 nm for IR-780, and the excitation at 823 nm and the emission from 840 to 900 nm for IC7-1-Bu. The normalized intensity (%) was calculated as a percentage of fluorescence intensity obtained with CCCP untreated (0 µM) cells.

For data set [6], the target named is T1, albumin-binding site I (warfarin-binding site) (Bos taurus, UniProt P02769).
T1 construct: incubated for 30 min in PBS (pH 7.4) containing 5% DMSO and 5% FBS; from tissue; host or cells: fetal bovine serum (5% in PBS)
The data set is described as follows: Protein-binding assay with competitive inhibitors in 5% FBS. The note with it: 5% FBS, inhibitor 189 μmol/L, dye 1 μmol/L. The class given is in vitro ADME, bovine. The method, then: A protein-binding assay was conducted as reported previously. Briefly, warfarin, ibuprofen, digoxin, and quinidine were used as competitive inhibitors of albumin-binding sites I, II, III, and […], respectively. The inhibitors (0 and 189 μmol/L) were incubated for 30 min in PBS (pH 7.4) containing 5% DMSO and 5% FBS at room temperature. Immediately after the addition of the IC7-1 derivative (1 μmol/L final concentration), the fluorescence intensity was measured following the excitation at 823 nm and the emission from 840 to 900 nm. The normalized intensity (%) was calculated as a percentage of fluorescence intensity obtained from an inhibitor untreated sample.

Sequence of BSA (P02769 25-607): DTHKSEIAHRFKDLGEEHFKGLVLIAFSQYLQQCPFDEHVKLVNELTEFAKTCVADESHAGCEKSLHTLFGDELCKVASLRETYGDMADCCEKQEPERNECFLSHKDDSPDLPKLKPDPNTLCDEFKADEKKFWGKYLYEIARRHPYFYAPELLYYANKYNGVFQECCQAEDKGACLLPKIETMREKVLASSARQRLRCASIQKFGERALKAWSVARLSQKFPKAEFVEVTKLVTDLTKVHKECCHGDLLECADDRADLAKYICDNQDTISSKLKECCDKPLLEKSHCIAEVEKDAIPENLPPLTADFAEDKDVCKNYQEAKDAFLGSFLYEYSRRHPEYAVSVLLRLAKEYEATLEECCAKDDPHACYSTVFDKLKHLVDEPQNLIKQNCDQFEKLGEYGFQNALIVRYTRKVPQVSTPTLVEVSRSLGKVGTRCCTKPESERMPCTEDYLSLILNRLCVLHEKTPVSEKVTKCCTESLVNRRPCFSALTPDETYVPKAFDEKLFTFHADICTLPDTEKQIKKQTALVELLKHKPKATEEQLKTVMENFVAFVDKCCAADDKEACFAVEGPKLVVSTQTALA
T1 sequence (P02769 25-607): as above

With `CCN1/C(=C/C=C2\CCCC(/C=C/C3=[N+](CC)c4ccc5ccccc5c4C3(C)C)=C2Cl)C(C)(C)c2c1ccc1ccccc21` [IC7-1-Et, 3-Ethyl-2-(2-{3-[2-(3-ethyl-1,1-dimethyl-1,3-dihydro-benz[e]indol-2-ylidene)-ethylidene]-2-chloro-cyclohex-1-enyl}-vinyl)-1,1-dimethyl-1H-benz[e]indolium], in data set [1] (5% FBS), the “Φ, quantum yield” value was 0.04 and the “ε, extinction coefficient” value was determined as 130000 mol/L/cm. Further, in data set [1] (5% FBS, 1 μmol/L), the “emmax, maximum emission wavelength” value was found to be 847 nm and the “exmax, maximum excitation wavelength” value is given as 823 nm. Besides, in data set [1] (CHCl3), the “Φ, quantum yield” value turned out to be 0.06 and the “ε, extinction coefficient” value is 330000 mol/L/cm. Besides, in data set [1] (CHCl3, 1 μmol/L), the “emmax, maximum emission wavelength” value was 842 nm and the “exmax, maximum excitation wavelength” value turned out to be 823 nm. Further, in data set [2], the “Subcellular localization of NIR fluorescence” value (“Subcellular localization” below) is “colocalized fluorescence with NAO”. Further, the Kd in data set [3] was 556 nM. For the same compound, in data set [4], the “Tumor fluorescence intensity group from ROI analysis” value (shortened to “Tumor fluorescence intensity group”) was “negligible intensity group”; the “Liver accumulation and excretion” value was “accumulated in the liver, and were quickly excreted”. For the same compound, in data set [4] (10 nmol i.v., 24, 48 and 72 h), the “Tumor depiction in fluorescence images” value is recorded as “negligible signals from the whole body”.

Take `CCCCCCN1/C(=C/C=C2\CCCC(/C=C/C3=[N+](CCCCCC)c4ccc5ccccc5c4C3(C)C)=C2Cl)C(C)(C)c2c1ccc1ccccc21` [IC7-1-He, 3-Hexyl-2-(2-{3-[2-(3-hexyl-1,1-dimethyl-1,3-dihydro-benz[e]indol-2-ylidene)-ethylidene]-2-chloro-cyclohex-1-enyl}-vinyl)-1,1-dimethyl-1H-benz[e]indolium]: in data set [1] (5% FBS), the “Φ, quantum yield” value worked out at 0.03 and the “ε, extinction coefficient” value was 60000 mol/L/cm. Besides, in data set [1] (5% FBS, 1 μmol/L), the “emmax, maximum emission wavelength” value is reported as 841 nm and the “exmax, maximum excitation wavelength” value was found to be 823 nm. Moreover, in data set [1] (CHCl3), the “Φ, quantum yield” value is reported as 0.06 and the “ε, extinction coefficient” value was 330000 mol/L/cm. Besides, in data set [1] (CHCl3, 1 μmol/L), the “emmax, maximum emission wavelength” value came to 845 nm and the “exmax, maximum excitation wavelength” value was 823 nm. Further, the “Subcellular localization” value in data set [2] was “weak or negligible fluorescence in the NIR region”. For the same compound, the “Normalized cellular fluorescence intensity under CCCP treatment” value in data set [5] is listed as “reduced cellular fluorescence from treatment with a low CCCP concentration”. The Kd in data set [3] is 833 nM. Moreover, the “Tumor fluorescence intensity group” value in data set [4] is “negligible intensity group”. Moreover, in data set [4] (10 nmol i.v., 24, 48 and 72 h), the “Fluorescence intensity at the tumor region” value was “weak at all time points” and the “Tumor depiction in fluorescence images” value is given as “negligible signals from the whole body”.

As for `CN1/C(=C/C=C2\CCCC(/C=C/C3=[N+](C)c4ccc5ccccc5c4C3(C)C)=C2Cl)C(C)(C)c2c1ccc1ccccc21` [IC7-1-Me, 3-Methyl-2-(2-{3-[2-(3-methyl-1,1-dimethyl-1,3-dihydro-benz[e]indol-2-ylidene)-ethylidene]-2-chloro-cyclohex-1-enyl}-vinyl)-1,1-dimethyl-1H-benz[e]indolium], in data set [1] (5% FBS), the “Φ, quantum yield” value was found to be 0.04 and the “ε, extinction coefficient” value is 120000 mol/L/cm. Moreover, in data set [1] (5% FBS, 1 μmol/L), the “emmax, maximum emission wavelength” value came to 846 nm and the “exmax, maximum excitation wavelength” value was 823 nm. For the same compound, in data set [1] (CHCl3), the “Φ, quantum yield” value stood at 0.07 and the “ε, extinction coefficient” value worked out at 330000 mol/L/cm. In data set [1] (CHCl3, 1 μmol/L), the “emmax, maximum emission wavelength” value amounted to 841 nm and the “exmax, maximum excitation wavelength” value was found to be 823 nm. Also, the “Subcellular localization” value in data set [2] was “colocalized fluorescence with NAO”. In data set [3], the Kd is 769 nM. In data set [4], the “Tumor fluorescence intensity group” value was “negligible intensity group”; the “Liver accumulation and excretion” value is “accumulated in the liver, and were quickly excreted”. Further, the “Tumor depiction in fluorescence images” value in data set [4] (10 nmol i.v., 24, 48 and 72 h) is reported as “negligible signals from the whole body”.

For the compound `CCCCCN1/C(=C/C=C2\CCCC(/C=C/C3=[N+](CCCCC)c4ccc5ccccc5c4C3(C)C)=C2Cl)C(C)(C)c2c1ccc1ccccc21` [IC7-1-Pe, 3-Pentyl-2-(2-{3-[2-(3-pentyl-1,1-dimethyl-1,3-dihydro-benz[e]indol-2-ylidene)-ethylidene]-2-chloro-cyclohex-1-enyl}-vinyl)-1,1-dimethyl-1H-benz[e]indolium], in data set [1] (5% FBS), the “Φ, quantum yield” value is recorded as 0.03 and the “ε, extinction coefficient” value was 90000 mol/L/cm. Also, in data set [1] (5% FBS, 1 μmol/L), the “emmax, maximum emission wavelength” value is on record as 847 nm and the “exmax, maximum excitation wavelength” value stood at 823 nm. Besides, in data set [1] (CHCl3), the “Φ, quantum yield” value is given as 0.06 and the “ε, extinction coefficient” value worked out at 330000 mol/L/cm. Besides, in data set [1] (CHCl3, 1 μmol/L), the “emmax, maximum emission wavelength” value is on record as 845 nm and the “exmax, maximum excitation wavelength” value worked out at 823 nm. Further, the “Subcellular localization” value in data set [2] is on record as “weak or negligible fluorescence in the NIR region”. The “Normalized cellular fluorescence intensity under CCCP treatment” value in data set [5] was “reduced cellular fluorescence from treatment with a low CCCP concentration”. Also, the “Normalized fluorescence intensity with warfarin (albumin site I inhibitor)” value in data set [6] is on record as “specifically bound to albumin”. The Kd in data set [3] was 625 nM. The “Tumor fluorescence intensity group” value in data set [4] is recorded as “mild intensity group”. For the same compound, the “Tumor depiction in fluorescence images” value in data set [4] (10 nmol i.v., 24, 48 and 72 h) is listed as “Tumors were clearly depicted”.

For `CCCN1/C(=C/C=C2\CCCC(/C=C/C3=[N+](CCC)c4ccccc4C3(C)C)=C2Cl)C(C)(C)c2ccccc21.[I-]` [IR-780, reference compound], in data set [5], the “Normalized cellular fluorescence intensity under CCCP treatment” value is “almost negligible effect of CCCP”.
